Experimental findings from patent publication US20090318446A1, “4-(1H-Indol-3-yl)-Pyrimidin-2-Ylamine Derivatives and Their Use in Therapy” (Cyclacel Limited, priority 2005, published 2009) are described below.

Some results are limits rather than exact numbers.

Assay [1] has as its target Drosophila Aurora A (Drosophila melanogaster, UniProt Q9VGF9). The experiment in a line: Aurora A kinase assay (Drosophila enzyme). In kind it is biochemical. The following applies: Table 3, values marked *: Drosophila Aurora A; read-out: Kinase inhibition Aurora A (*Drosophila Aurora A). The procedure: (§1) The compounds from the examples above were investigated for their ability to inhibit the enzymatic activity of various protein kinases. This was achieved by measurement of incorporation of radioactive phosphate from ATP into appropriate polypeptide substrates. Recombinant protein kinases and kinase complexes were produced or obtained commercially. Assays were performed using 96-well plates and appropriate assay buffers (typically 25 mM β-glycerophosphate, 20 mM MOPS, 5 mM EGTA, 1 mM DTT, 1 mM […], pH 7.4), into which were added 2-4 μg of active enzyme with appropriate substrates. The reactions were initiated by addition of Mg/ATP mix (15 mM MgCl2+100 μM ATP with 30-50 kBq per well of [γ-^32P]-ATP) and mixtures incubated as required at 30° C. Reactions were stopped on ice, followed by filtration through p81 filterplates or GF/C filterplates (Whatman Polyfiltronics, Kent, UK). After washing 3 times with 75 mM aq orthophosphoric acid, plates were dried, scintillant added and incorporated radioactivity measured in a scintillation counter (TopCount, Packard Instruments, Pangbourne, Berks, UK). Compounds for kinase assay were made up as 10 mM stocks in DMSO and diluted into 10% DMSO in assay buffer. Data was analysed using curve-fitting software (GraphPad Prism version 3.00 for Windows, GraphPad Software, San Diego Calif. USA) to determine IC50 values (concentration of test compound which inhibits kinase activity by 50%).

For assay [2], the target named is CDK2/cyclin A (Homo sapiens, UniProt P24941). The experiment in a line: Kinase assay CDK2/cyclin A. Format: biochemical. The following applies: Table 2; read-out: Kinase inhibition IC50 CDK2A. The procedure:
as §1

For assay [3], the target named is CDK1/cyclin B (Homo sapiens, UniProt P06493). The assay is described as follows: Kinase assay CDK1/cyclin B. Format: biochemical. The following applies: Table 2; read-out: Kinase inhibition IC50 CDK1B. How it is done:
as §1

Assay [4] addresses GSK-3β (Oryctolagus cuniculus, UniProt G1T8E2). The experiment in a line: GSK-3β kinase assay. In kind it is biochemical, rabbit. The following applies: Table 2; read-out: Kinase inhibition IC50 GSK3. How it is done:
GSK-3 was obtained from New England Biolabs (UK) Ltd., Hitchin, Herts. The recombinant enzyme was isolated from a strain of E. coli that carries a clone expressing GSK-3β derived from a rabbit skeletal muscle cDNA library [Wang, Q. M.; Fiol, C. J.; DePaoli-Roach, A. A.; Roach, P. J. J. Biol. Chem., 1994, 269, 14566]. Inhibition of GSK-3 function was assessed by measurement of phosphorylation of CREB phosphopeptide KRREILSRRPphosphoSYR in the presence of test compounds. Using a 96-well assay format, GSK3 (7.5 U) was incubated for 30 min at 30° C. in a total volume of 25 μL in 20 mM MOPS pH 7.2, 25 mM β-glycerophosphate, 5 mM EGTA, 1 mM DTT, 1 mM […], 40 μM CREB peptide, 15 mM MgCl2 and 100 μM ATP (containing 0.25 μCi [γ-^32P]-ATP) in the presence of varying concentrations of test compound. The samples were transferred to 96-well p81 filter plates (Whatman Polyfiltronics, Kent, UK), and the plates were washed 4 times with 200 μL/well of 75 mM aq orthophosphoric acid. Scintillation liquid (50 μL) was added to each well, and incorporated radioactivity for each sample was determined using a scintillation counter (TopCount, Packard Instruments, Pangbourne, Berks, UK).

In assay [5] the target is T1, aurora-B (Homo sapiens, UniProt Q96GD4).
T1 construct: purchased Upstate, Dundee, UK
T1 sequence (Q96GD4 whole entry): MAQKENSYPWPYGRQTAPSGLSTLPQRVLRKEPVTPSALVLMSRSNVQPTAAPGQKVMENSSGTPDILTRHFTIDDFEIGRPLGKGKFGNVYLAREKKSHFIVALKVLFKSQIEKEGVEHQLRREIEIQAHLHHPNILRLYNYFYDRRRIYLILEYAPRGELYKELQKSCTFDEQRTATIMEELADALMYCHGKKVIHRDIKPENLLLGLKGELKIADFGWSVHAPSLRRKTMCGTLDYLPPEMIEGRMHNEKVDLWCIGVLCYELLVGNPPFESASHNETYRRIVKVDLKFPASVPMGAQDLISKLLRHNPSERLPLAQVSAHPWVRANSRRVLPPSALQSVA
The assay is described as follows: Aurora-B (human) kinase assay. Particulars: Table 3; read-out: Kinase inhibition Aurora B. Format: biochemical. How it is done: This was achieved by measurement of incorporation of radioactive phosphate from ATP into Kemptide substrate (LRRASLG), upon phosphorylation by commercially obtained aurora-B (human, Upstate, Dundee, UK). Assays were performed using 96-well plates and appropriate assay buffers (20 mM Tris, 25 mM β-glycerophosphate, 5 mM EGTA, 1 mM DTT, 1 mM sodium vanadate, pH 7.5), into which were added 75 ng of pre-activated enzyme with 500 μM substrate (Kemptide). The reactions were initiated by addition of MgATP mix (15 mM MgCl2+100 μM ATP with 15-25 kBq per well of [γ-^32P]-ATP) and mixtures incubated for 60 min at 30° C. Reactions were stopped by addition of an equal volume of 75 mM aq orthophosphoric acid, followed by filtration through p81 filterplates (Whatman Polyfiltronics, Kent, UK). After washing 4 times with 75 mM aq orthophosphoric acid, plates were dried, scintillant added and incorporated radioactivity measured in a scintillation counter (TopCount, Packard Instruments, Pangbourne, Berks, UK). Compounds for kinase assay were made up as 10 mM stocks in DMSO and diluted into 10% DMSO in assay buffer. Data was analysed using curve-fitting software (XLfit version 4.0.2, IDBS, Guildford, Surrey, UK) to determine IC50 values (concentration of test compound which inhibits kinase activity by 50%).
Aurora-B (human, Upstate, Dundee, UK) was pre-activated immediately prior to kinase assay in appropriate buffers (20 mM Tris, 25 mM β-glycerophosphate, 5 mM EGTA, 1 mM DTT, 1 mM sodium vanadate, pH 7.5) by incubating 15 μg of enzyme with 4 μg INCENP (Upstate, Dundee, UK) in the presence of MgATP mix (15 mM MgCl2+100 μM ATP) for 15 min at 30° C.

Sequence of GSK-3β (G1T8E2 1-432): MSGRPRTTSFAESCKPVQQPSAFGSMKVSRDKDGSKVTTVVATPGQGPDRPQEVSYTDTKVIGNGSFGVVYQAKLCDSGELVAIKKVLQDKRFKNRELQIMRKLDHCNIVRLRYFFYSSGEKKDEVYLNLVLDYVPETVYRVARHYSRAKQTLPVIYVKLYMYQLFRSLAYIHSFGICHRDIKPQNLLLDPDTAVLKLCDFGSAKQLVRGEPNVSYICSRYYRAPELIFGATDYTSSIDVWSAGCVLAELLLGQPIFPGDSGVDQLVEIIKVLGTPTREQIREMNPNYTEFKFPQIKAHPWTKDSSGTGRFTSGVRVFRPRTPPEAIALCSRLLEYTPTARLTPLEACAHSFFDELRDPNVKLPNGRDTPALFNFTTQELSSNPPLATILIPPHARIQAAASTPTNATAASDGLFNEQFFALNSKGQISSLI
Sequence of Drosophila Aurora A (Q9VGF9 entry or part of it): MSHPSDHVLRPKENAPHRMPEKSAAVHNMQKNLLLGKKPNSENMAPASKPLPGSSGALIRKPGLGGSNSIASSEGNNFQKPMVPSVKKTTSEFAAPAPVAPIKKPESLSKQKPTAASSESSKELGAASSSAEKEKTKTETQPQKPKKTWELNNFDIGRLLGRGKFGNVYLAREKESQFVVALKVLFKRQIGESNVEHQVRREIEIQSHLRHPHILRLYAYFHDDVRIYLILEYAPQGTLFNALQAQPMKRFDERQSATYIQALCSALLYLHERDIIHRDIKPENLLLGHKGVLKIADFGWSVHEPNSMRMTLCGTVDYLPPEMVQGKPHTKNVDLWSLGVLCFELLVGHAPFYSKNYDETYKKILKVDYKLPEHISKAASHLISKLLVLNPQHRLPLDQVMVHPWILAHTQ
Sequence of CDK1/cyclin B (P06493 whole entry, species assumed): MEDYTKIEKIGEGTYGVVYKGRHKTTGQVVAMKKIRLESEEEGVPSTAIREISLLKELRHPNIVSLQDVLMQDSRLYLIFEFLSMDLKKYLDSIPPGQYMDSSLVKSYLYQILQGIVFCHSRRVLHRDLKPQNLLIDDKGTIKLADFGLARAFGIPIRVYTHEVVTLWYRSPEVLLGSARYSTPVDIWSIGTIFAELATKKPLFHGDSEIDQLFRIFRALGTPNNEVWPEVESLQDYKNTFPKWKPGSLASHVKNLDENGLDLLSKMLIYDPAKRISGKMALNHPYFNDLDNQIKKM
Sequence of CDK1/cyclin B (P14635 whole entry partner, species assumed): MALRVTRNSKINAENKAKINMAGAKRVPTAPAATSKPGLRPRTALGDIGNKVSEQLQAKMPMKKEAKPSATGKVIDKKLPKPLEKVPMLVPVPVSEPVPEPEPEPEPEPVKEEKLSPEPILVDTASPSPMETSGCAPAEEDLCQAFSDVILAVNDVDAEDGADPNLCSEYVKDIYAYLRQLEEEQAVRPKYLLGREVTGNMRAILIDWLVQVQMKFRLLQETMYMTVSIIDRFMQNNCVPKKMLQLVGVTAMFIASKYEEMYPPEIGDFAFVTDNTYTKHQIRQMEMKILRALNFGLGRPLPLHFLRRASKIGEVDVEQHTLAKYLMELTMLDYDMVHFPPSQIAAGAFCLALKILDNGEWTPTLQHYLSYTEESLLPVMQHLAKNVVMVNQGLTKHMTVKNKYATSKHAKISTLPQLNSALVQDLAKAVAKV

With `O=[N+]([O-])c1cccc(Nc2nccc(-c3c[nH]c4ccccc34)n2)c1` [Compound 2, [4-(1H-Indol-3-yl)-pyrimidin-2-yl]-(3-nitro-phenyl)-amine], the IC50 in assay [1] is 274 nM; in assay [2] it was above 100000 nM; in assay [3] it was above 100000 nM; in assay [4], 2100 nM.

On to `Fc1ccc(Nc2nccc(-c3c[nH]c4ccccc34)n2)cc1` [Compound 3, (4-Fluoro-phenyl)-[4-(1H-indol-3-yl)-pyrimidin-2-yl]-amine], for which the IC50 in assay [1] is 1050 nM; in assay [2], above 100000 nM; in assay [3], above 100000 nM; in assay [4], 8700 nM.

In the case of `COc1ccc(Nc2nccc(-c3c[nH]c4ccccc34)n2)cn1` [Compound 4, [4-(1H-Indol-3-yl)-pyrimidin-2-yl]-(6-methoxy-pyridin-3-yl)-amine], the IC50 in assay [1] worked out at 243 nM; in assay [2], 2600 nM; in assay [3], 1900 nM; in assay [4], 1600 nM.

Turning to `c1ccc2c(-c3ccnc(Nc4ccc(N5CCOCC5)cc4)n3)c[nH]c2c1` [Compound 5, [4-(1H-Indol-3-yl)-pyrimidin-2-yl]-(4-morpholin-4-yl-phenyl)-amine], in assay [5], the IC50 is 260 nM.

As for `CC(=O)N1CCN(c2ccc(Nc3nccc(-c4c[nH]c5ccccc45)n3)cc2)CC1` [Compound 6, 4-(1H-indol-3-yl)-N-(4-acetylpiperazin-1-ylphenyl)pyrimidin-2-amine], in assay [5], the IC50 turned out to be 125 nM.

Take `c1ccc2c(-c3ccnc(Nc4ccc(N5CCNCC5)cc4)n3)c[nH]c2c1` [Compound 7, 4-(1H-indol-3-yl)-N-(4-piperazin-1-ylphenyl)pyrimidin-2-amine]: the IC50 in assay [5] is 170 nM.

Consider `CC1CN(c2ccc(Nc3nccc(-c4c[nH]c5ccccc45)n3)cc2)CC(C)O1` (stereo not drawn) [Compound 9], for which, in assay [5], the IC50 was determined as 158 nM.

Turning to `CN(C)c1ccc(Nc2nccc(-c3c[nH]c4ccccc34)n2)cc1` [Compound 10, N′-[4-(1H-indol-3-yl)pyrimidin-2-yl]-N,N-dimethylbenzene-1,4-diamine], the IC50 in assay [5] is 729 nM.

As to `COc1cc(Nc2nccc(-c3c[nH]c4ccccc34)n2)cc(OC)c1OC` [Compound 12, 4-(1H-indol-3-yl)-N-(3,4,5-trimethoxyphenyl)pyrimidin-2-amine], in assay [5], the IC50 came out at 66.4 nM.

Turning to `COc1cc(Nc2nccc(-c3c[nH]c4ccccc34)n2)ccc1N1CCOCC1` [Compound 13, 4-(1H-indol-3-yl)-N-(3-methoxyl-4-morpholin-4-ylphenyl)pyrimidin-2-amine], the IC50 in assay [5] came to 228 nM.

Turning to `CC(=O)N1CCN(c2ccc(Nc3nccc(-c4c(C)[nH]c5ccccc45)n3)cc2)CC1` [Compound 22], the IC50 in assay [5] stood at 24.6 nM.

Consider `CC(=O)N1CCN(c2ccc(Nc3nccc(-c4c[nH]c5c(C)cccc45)n3)cc2)CC1` [Compound 23], for which the IC50 in assay [5] came to 76.1 nM.
